Results reported in patent US9751865B2, “Dihydro-hydantoin derivatives with herbicidal activity” (SYNGENTA PARTICIPATIONS AG, priority 2013, dated 2017).

Key:
Assay type in all cases: in vivo
[1] = test system: Abutilon theophrasti; assay: Pre-emergence herbicidal activity, ABUTH; set-up: key: 5=total damage to plant; 0=no damage to plant; conditions: application pre-emergence, 1000 g/Ha, evaluated after 13 days, scale 0-5
Protocol: (§1) Seeds of a variety of test species were sown in standard soil in pots. After cultivation for one day (pre-emergence) under controlled conditions in a glasshouse (at 24/16° C., day/night; 14 hours light; 65% humidity), the plants were sprayed with an aqueous spray solution derived from the formulation of the technical active ingredient in acetone/water (50:50) solution containing 0.5% Tween 20 (polyoxyethelyene sorbitan monolaurate, CAS RN 9005-64-5). The test plants were then grown in a glasshouse under controlled conditions (at 24/16° C., day/night; 14 hours light; 65% humidity) and watered twice daily. After 13 days, the test was evaluated (5=total damage to plant; 0=no damage to plant).

[2] = test system: Amaranthus retroflexus; assay: Pre-emergence herbicidal activity, AMARE; set-up: key: 5=total damage to plant; 0=no damage to plant; conditions: application pre-emergence, 1000 g/Ha, evaluated after 13 days, scale 0-5
Protocol: as §1

[3] = test system: Echinochloa crus-galli; assay: Pre-emergence herbicidal activity, ECHCG; set-up: key: 5=total damage to plant; 0=no damage to plant; conditions: application pre-emergence, 1000 g/Ha, evaluated after 13 days, scale 0-5
Protocol: as §1

[4] = test system: Setaria faberi; assay: Pre-emergence herbicidal activity, SETFA; set-up: key: 5=total damage to plant; 0=no damage to plant; conditions: application pre-emergence, 1000 g/Ha, evaluated after 13 days, scale 0-5
Protocol: as §1

[5] = test system: Alopecurus myosuroides; assay: Pre-emergence herbicidal activity, ALOMY; conditions: application pre-emergence, 1000 g/Ha, evaluated after 13 days, scale 0-5
Protocol: as §1

[6] = test system: Zea mays; assay: Pre-emergence herbicidal activity, ZEAMX; set-up: key: 5=total damage to plant; 0=no damage to plant; conditions: application pre-emergence, 1000 g/Ha, evaluated after 13 days, scale 0-5
Protocol: as §1

[7] = test system: Abutilon theophrasti; assay: Post-emergence herbicidal activity, ABUTH; set-up: key: 5=total damage to plant; 0=no damage to plant; conditions: application post-emergence, 1000 g/Ha, evaluated after 13 days, scale 0-5
Protocol: (§2) Seeds of a variety of test species were sown in standard soil in pots. After 8 days cultivation (post-emergence) under controlled conditions in a glasshouse (at 24/16° C., day/night; 14 hours light; 65% humidity), the plants were sprayed with an aqueous spray solution derived from the formulation of the technical active ingredient in acetone/water (50:50) solution containing 0.5% Tween 20 (polyoxyethelyene sorbitan monolaurate, CAS RN 9005-64-5). The test plants were then grown in a glasshouse under controlled conditions (at 24/16° C., day/night; 14 hours light; 65% humidity) and watered twice daily. After 13 days, the test was evaluated (5=total damage to plant; 0=no damage to plant).

[8] = test system: Setaria faberi; assay: Post-emergence herbicidal activity, SETFA; set-up: key: 5=total damage to plant; 0=no damage to plant; conditions: application post-emergence, 1000 g/Ha, evaluated after 13 days, scale 0-5
Protocol: as §2

[9] = test system: Amaranthus retroflexus; assay: Post-emergence herbicidal activity, AMARE; set-up: key: 5=total damage to plant; 0=no damage to plant; conditions: application post-emergence, 1000 g/Ha, evaluated after 13 days, scale 0-5
Protocol: as §2

[10] = test system: Echinochloa crus-galli; assay: Post-emergence herbicidal activity, ECHCG; set-up: key: 5=total damage to plant; 0=no damage to plant; conditions: application post-emergence, 1000 g/Ha, evaluated after 13 days, scale 0-5
Protocol: as §2

[11] = test system: Zea mays; assay: Post-emergence herbicidal activity, ZEAMX; set-up: key: 5=total damage to plant; 0=no damage to plant; conditions: application post-emergence, 1000 g/Ha, evaluated after 13 days, scale 0-5
Protocol: as §2

[12] = test system: Alopecurus myosuroides; assay: Post-emergence herbicidal activity, ALOMY; set-up: key: 5=total damage to plant; 0=no damage to plant; conditions: application post-emergence, 1000 g/Ha, evaluated after 13 days, scale 0-5
Protocol: as §2

Structure (SMILES) | ABUTH damage score [1] | AMARE damage score [2] | ECHCG damage score [3] | SETFA damage score [4] | ALOMY damage score [5] | ZEAMX damage score [6] | ABUTH damage score [7] | SETFA damage score [8] | AMARE damage score [9] | ECHCG damage score [10] | ZEAMX damage score [11] | ALOMY damage score [12]
CON1C(=O)N(c2cc3n(n2)CCC3(C)C)C(O)C1C (stereo not drawn) [Compound A1] | 5 | 5 | 5 | 4 | 4 | 3 | 5 | 5 | 5 | 5 | 5 | 4
CC1C(O)N(c2cc(C(F)(F)F)n(C)n2)C(=O)N1C (stereo not drawn) [Compound A2, 4-hydroxy-1,5-dimethyl-3-[1-methyl-5-(trifluoromethyl)pyrazol-3-yl]imidazolidin-2-one] | 5 | 5 | 4 | 4 | 4 | 4 | 5 | 5 | 5 | 5 | 4 | 5
CON1C(=O)N(c2cc(C(C)(C)C)n(C)n2)C(O)C1C (stereo not drawn) [Compound A3] | 5 | 5 | 4 | 4 | 4 | 3 | 5 | 5 | 5 | 5 | 4 | 5
CON1C(=O)N(c2cc(C(F)(F)F)n(C)n2)C(O)C1C (stereo not drawn) [Compound A4, 4-hydroxy-1-methoxy-5-methyl-3-[1-methyl-5-(trifluoromethyl)pyrazol-3-yl]imidazolidin-2-one] | 5 | 5 | 4 | 4 | 4 | 3 | 5 | 5 | 5 | 5 | 5 | 5
CN1CC(O)N(c2nn(C)c(C(C)(C)C)c2C#N)C1=O (stereo not drawn) [Compound A5] | 2 | 4 | 0 | 0 | 1 | 0 | 4 | 3 | 5 | 3 | 2 | 3
CC1C(O)N(c2nn(C)c(C(C)(C)C)c2C#N)C(=O)N1C (stereo not drawn) [Compound A6] | 5 | 2 | 2 | 2 | 1 | 1 | 5 | 5 | 5 | 4 | 2 | 4
CC1C(O)N(c2cc(C(C)(C)C)n(C)n2)C(=O)N1C (stereo not drawn) [Compound A7] | 4 | 5 | 4 | 5 | 4 | 2 | 5 | 5 | 5 | 5 | 4 | 4
CCOC1C(O)N(c2cc(C(F)(F)F)n(C)n2)C(=O)N1C (stereo not drawn) [Compound A8, 5-ethoxy-4-hydroxy-1-methyl-3-[1-methyl-5-(trifluoromethyl)pyrazol-3-yl]imidazolidin-2-one] | 5 | 5 | 5 | 4 | 4 | 2 | 5 | 5 | 5 | 5 | 4 | 5
CCOC1C(O)N(c2cc(C(C)(C)C)n(C)n2)C(=O)N1C (stereo not drawn) [Compound A10] | 5 | 5 | 5 | 4 | 4 | 2 | 5 | 5 | 5 | 5 | 5 | 5
CN1C(=O)N(c2cc(C(F)(F)F)n(C)n2)C(O)C1O (stereo not drawn) [Compound A12, 4,5-dihydroxy-1-methyl-3-[1-methyl-5-(trifluoromethyl)pyrazol-3-yl]imidazolidin-2-one] | 5 | 5 | 4 | 4 | 4 | 1 | 5 | 5 | 5 | 5 | 4 | 5
CN1CC(O)N(c2cc(C(F)(F)F)n(C)n2)C1=O (stereo not drawn) [Compound A13] | 5 | 5 | 5 | 4 | 4 | 2 | 5 | 5 | 5 | 5 | 4 | 5
CN1CC(O)N(c2cc3n(n2)CCC3(C)C)C1=O (stereo not drawn) [Compound A14] | 5 | 5 | 4 | 4 | 4 | 3 | 5 | 5 | 5 | 5 | 5 | 5
COC(C)(C)c1cc(N2C(=O)N(C)CC2O)nn1C (stereo not drawn) [Compound A18] | 5 | 5 | 4 | 4 |  | 2 | 5 | 5 | 5 | 4 | 2 | 
CON1C(=O)N(c2cc(C(C)(C)OC)n(C)n2)C(O)C1C (stereo not drawn) [Compound A19] | 5 | 5 | 4 | 4 |  | 2 | 5 | 5 | 5 | 5 | 3 | 
COC(C)(C)c1cc(N2C(=O)N(C)C(C)C2O)nn1C (stereo not drawn) [Compound A20] | 5 | 5 | 4 | 4 |  | 2 | 5 | 4 | 5 | 5 | 3 | 
COCC1C(O)N(c2cc(C(C)(C)OC)n(C)n2)C(=O)N1C (stereo not drawn) [Compound A21] | 5 | 5 | 4 | 4 |  | 2 | 5 | 4 | 5 | 3 | 2 | 
COCC1C(O)N(c2cc(C(C)(C)C)n(C)n2)C(=O)N1C (stereo not drawn) [Compound A22] | 5 | 5 | 1 | 1 | 2 | 0 | 5 | 5 | 5 | 5 | 4 | 
